Reference: publication PMC8472965, “BmK86-P1, a New Degradation Peptide with Desirable Thermostability and Kv1.2 Channel-Specific Activity from Traditional Chinese Scorpion Medicinal Material” (Toxins, 2021)
Positions of bridges follow the written chain, without caps; N, C: chain ends. Residues, ends and D or L forms follow the SMILES beside them.

What was measured:
[1] = Thermal stability of secondary structure by CD spectroscopy; type: physicochemical; conditions: 0.2 mg/mL in ddH2O, 20, 35, 50, 65, 80 and 95 °C, then returned to 20 °C, average of three scans
Procedure: In order to characterize the thermal stability of BmK86-P1, we analyzed the secondary structure of BmK86-P1 peptide in aqueous solutions at different temperatures (20 °C, 35 °C, 50 °C, 65 °C, 80 °C and 95 °C) by CD spectroscopy.
The secondary structures of BmK86-P1 and its mutants in water were measured by circular dichroism (CD) spectroscopy as previously described using a ChirascanTM V^100 spectrometer (Applied Photophysics, Surrey, UK). All the peptides were dissolved into ddH2O at a concentration of 0.2 mg/mL. At a range of wavelengths from 180 to 260 nm, the absorption spectra of peptides were recorded at room temperature. The speed scanning was 1 nm/s with a response time of 1 s. […] (deg·cm^2·dmol^−1).

[2] = target: T1, hKv1.1 channel (Homo sapiens, UniProt Q09470); experiment: Whole-cell patch clamp, hKv1.1 channel overexpressed in HEK293T cells; type: cell-based; conditions: mean ± S.E., n ≥ 3, SEM
T1 construct: expressed in transfected cells; host or cells: HEK293T
T1 sequence (Q09470 whole entry): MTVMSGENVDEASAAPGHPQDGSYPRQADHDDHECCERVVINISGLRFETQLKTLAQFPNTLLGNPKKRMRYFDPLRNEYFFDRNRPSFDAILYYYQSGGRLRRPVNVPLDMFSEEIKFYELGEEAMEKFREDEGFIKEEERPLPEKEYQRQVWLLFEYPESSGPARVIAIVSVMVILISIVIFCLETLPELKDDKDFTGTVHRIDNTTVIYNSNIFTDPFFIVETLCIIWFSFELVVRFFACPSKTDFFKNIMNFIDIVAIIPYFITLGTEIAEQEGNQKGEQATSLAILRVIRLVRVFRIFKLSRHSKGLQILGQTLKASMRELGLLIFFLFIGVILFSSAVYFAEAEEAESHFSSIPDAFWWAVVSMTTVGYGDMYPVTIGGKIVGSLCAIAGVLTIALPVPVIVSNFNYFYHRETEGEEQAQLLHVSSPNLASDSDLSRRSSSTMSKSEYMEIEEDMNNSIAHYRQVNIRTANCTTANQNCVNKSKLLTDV
Procedure: (§1) To investigate the electrophysiological activities of BmK86-P1, the whole-cell patch clamp technique was applied to test the effects of BmK86-P1 on multiple potassium channels. The hKv1.1, hKv1.2, hKv1.3, hKv1.6, hKv3.2, mKv4.1, rKv4.2, rKv4.3 and hERG channels were overexpressed in HEK293T cells, then the inhibitory effects of BmK86-P1 at 1 μM on these potassium channels were measured. […] To further investigate the affinity of BmK86-P1 inhibiting the hKv1.2 channel, a dose-dependent study was performed by examining the inhibitory effects of different concentrations of BmK86-P1.
(§2) All potassium channel expression vectors were given by others or constructed by ourselves. HEK293T cells were cultured in Dulbecco’s modified Eagle medium (Gibco, Pittsburgh, PA, USA) with 10% fetal bovine serum and penicillin/streptomycin (100 units/mL) in a 5% CO2 incubator at 37 °C. […] The potassium currents were recorded after transfection for 1 to 3 days.
(§3) The channel currents were measured and recorded by whole-cell patch clamp technology according to previously published references. […] The channel currents were recorded at room temperature (~25 °C) using an EPC 10 patch clamp amplifier. […]
(§4) The ClampFit (Molecular Devices, Sunnyvale, CA, USA) and SigmaPlot software ([…], Chicago, IL, USA) were used to analyze the recorded data. […]

[3] = target: T2, hKv1.2-M3 chimeric channel (Homo sapiens, UniProt P16389, T383V/V381Y); experiment: Whole-cell patch clamp, chimeric channel hKv1.2-M3 (turret or filter region of hKv1.2 substituted by that of hKv1.1); type: cell-based; conditions: 100 nM peptide, HEK293T, mean ± S.E., n ≥ 3, SEM
T2 construct: expressed in transfected cells; host or cells: HEK293T
T2 sequence (P16389 whole entry V381Y/T383V): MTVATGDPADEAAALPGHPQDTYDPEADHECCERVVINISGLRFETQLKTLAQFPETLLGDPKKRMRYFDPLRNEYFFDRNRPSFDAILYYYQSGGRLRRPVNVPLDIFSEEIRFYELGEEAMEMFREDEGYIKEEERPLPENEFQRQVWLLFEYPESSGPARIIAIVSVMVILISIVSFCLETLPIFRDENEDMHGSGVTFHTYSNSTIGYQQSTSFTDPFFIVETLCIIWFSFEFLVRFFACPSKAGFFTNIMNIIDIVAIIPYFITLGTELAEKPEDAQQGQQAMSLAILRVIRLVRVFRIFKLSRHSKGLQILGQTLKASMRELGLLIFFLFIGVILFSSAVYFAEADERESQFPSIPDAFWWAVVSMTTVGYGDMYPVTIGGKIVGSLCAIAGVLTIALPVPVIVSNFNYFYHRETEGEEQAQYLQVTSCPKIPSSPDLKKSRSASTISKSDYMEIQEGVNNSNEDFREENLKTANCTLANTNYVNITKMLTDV
Description: The turret and filter region of potassium channels have different effects on the toxin binding for different scorpion toxins. To investigate the importance of these two regions of potassium channels in interacting with BmK86-P1, another two channel chimeras (i.e., hKv1.2-M2 and hKv1.2-M3) were constructed, in which the turret or the filter region of the hKv1.2 channel was substituted by the equivalent region of the hKv1.1 channel.
(§5) All potassium channel expression vectors were given by others or constructed by ourselves. HEK293T cells were cultured in Dulbecco’s modified Eagle medium (Gibco, Pittsburgh, PA, USA) with 10% fetal bovine serum and penicillin/streptomycin (100 units/mL) in a 5% CO2 incubator at 37 °C. Potassium channel expression vectors and pEGFP-N1 were co-transfected into HEK293T cells using TurboFect in vitro Transfection Reagent (Thermo Scientific, Waltham, MA, USA) according to the manufacturer’s instructions. The potassium currents were recorded after transfection for 1 to 3 days.
as §3, with “references. The internal patch pipette solution and the bath solution were prepared as previously described.” for “references.”

[4] = target: T3, hKv1.2-M1 chimeric channel (Homo sapiens, UniProt P16389, D352E/P359S/Q357H/R354A/T383V/V381Y); experiment: Whole-cell patch clamp, chimeric channel hKv1.2-M1 (S5-S6 linker of hKv1.2 replaced by that of hKv1.1); type: cell-based; conditions: 100 nM peptide, HEK293T, mean ± S.E., n ≥ 3, SEM
T3 construct: expressed in transfected cells; host or cells: HEK293T
T3 sequence (P16389 whole entry D352E/R354A/Q357H/P359S/V381Y/T383V): as the sequence (P16389 whole entry V381Y/T383V) above, with D352E, R354A, Q357H, P359S counted along it
Procedure: The binding interface of potassium channels for scorpion toxins is the pore region, which includes the turret and filter regions. We first investigated whether BmK86-P1 peptide binds to the pore region of the hKv1.2 channel.
as §5
The channel currents were measured and recorded by whole-cell patch clamp technology according to previously published references. The internal patch pipette solution and the bath solution were prepared as previously described. All the test peptides were dissolved into bath solution supplemented with 0.01% BSA. An MPS-2 multichannel microperfusion system (INBIO Inc., Wuhan, China) was applied to change the external recording bath solution. […] The channel currents were recorded at room temperature (~25 °C) using an EPC 10 patch clamp amplifier. […]

[5] = target: T4, hKv1.2-T383V (Homo sapiens, UniProt P16389, T383V); experiment: Whole-cell patch clamp, hKv1.2 channel mutant T383V; type: cell-based; conditions: 100 nM peptide, HEK293T, mean ± S.E., n ≥ 3, SEM
T4 construct: expressed in transfected cells; host or cells: HEK293T
T4 sequence (P16389 whole entry T383V): as the sequence (P16389 whole entry V381Y/T383V) above, with Y381V counted along it
Procedure: (§6) To determine the functional sites of the hKv1.2 channel responsible for the selectivity of BmK86-P1, six hKv1.2 mutants were obtained based on sequence differences between the pore regions of the hKv1.2 and hKv1.1 channels (Figure 4A). Then, the activities of 100 nM BmK86-P1 on these six mutant channels were tested. […] The other three mutant channels (hKv1.2-D352E, hKv1.2-R354A and hKv1.2-P359S) still kept similar sensitivities toward BmK86-P1 compared with the wild-type hKv1.2 channel (Figure 4H,I,K,N).
as §5, §3

[6] = tested on: Kv1.3 channel; conditions: read-out: IC50, inhibition of the current of Kv1.3 channel; cited from earlier work
Description: The BmK86 toxin gene was first discovered from the venom gland cDNA library of Mesobuthus martensii Karsch. It encodes a signal peptide with 22 amino acid residues and a mature toxin with 35 residues (Figure 6A). The stretch of six amino acids in the N-terminus of BmK86 was thought to be a signal peptide rather than the N-terminal portion of the mature peptide. […] BmK86 could inhibit the c ...

[7] = target: T5, hKv1.2 channel (Homo sapiens, UniProt P16389); experiment: Whole-cell patch clamp, hKv1.2 channel overexpressed in HEK293T cells; type: cell-based; conditions: mean ± S.E., n ≥ 3, SEM
T5 construct: expressed in transfected cells; host or cells: HEK293T
T5 sequence (P16389 whole entry): as the sequence (P16389 whole entry V381Y/T383V) above, with Y381V, V383T counted along it
Procedure: as §1, §5
The channel currents were measured and recorded by whole-cell patch clamp technology according to previously published references. The internal patch pipette solution and the bath solution were prepared as previously described. All the test peptides were dissolved into bath solution supplemented with 0.01% BSA. An MPS-2 multichannel microperfusion system (INBIO Inc., Wuhan, China) was applied to change the external recording bath solution. The infusion time of the peptides should not exceed 20 min to maintain good cell conditions during electrophysiological recordings. The channel currents were recorded at room temperature (~25 °C) using an EPC 10 patch clamp amplifier. The results were presented as the means ± S.E., and in every sample at least three cells (n ≥ 3) were examined.
as §4

[8] = tested on: rKv4.3 channel; experiment: Whole-cell patch clamp, rKv4.3 channel overexpressed in HEK293T cells; type: cell-based, rat; conditions: 1 μM peptide, mean ± S.E., n ≥ 3, SEM
Procedure: as §1, §2, §3, §4

[9] = target: T6, hKv1.6 channel (Homo sapiens, UniProt P17658); experiment: Whole-cell patch clamp, hKv1.6 channel overexpressed in HEK293T cells; type: cell-based; conditions: 1 μM peptide, mean ± S.E., n ≥ 3, SEM
T6 construct: expressed in transfected cells; host or cells: HEK293T
T6 sequence (P17658 whole entry): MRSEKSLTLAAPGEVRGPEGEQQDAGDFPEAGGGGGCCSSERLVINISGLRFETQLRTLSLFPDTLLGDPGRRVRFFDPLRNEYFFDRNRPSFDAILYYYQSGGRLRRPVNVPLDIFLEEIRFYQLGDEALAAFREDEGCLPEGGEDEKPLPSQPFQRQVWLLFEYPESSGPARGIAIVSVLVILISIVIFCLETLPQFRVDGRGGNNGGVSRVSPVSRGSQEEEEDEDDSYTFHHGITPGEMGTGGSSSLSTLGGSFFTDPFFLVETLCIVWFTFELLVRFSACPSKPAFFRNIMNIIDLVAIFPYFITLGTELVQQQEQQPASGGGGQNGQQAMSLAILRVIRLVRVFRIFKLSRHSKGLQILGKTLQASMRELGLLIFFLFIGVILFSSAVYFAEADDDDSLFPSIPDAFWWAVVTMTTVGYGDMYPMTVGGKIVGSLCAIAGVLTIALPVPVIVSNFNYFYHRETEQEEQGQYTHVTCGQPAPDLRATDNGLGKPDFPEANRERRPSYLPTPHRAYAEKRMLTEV
Procedure: as §1, §2, §3, §4

[10] = target: T7, hKv1.2-D352E (Homo sapiens, UniProt P16389, D352E); experiment: Whole-cell patch clamp, hKv1.2 channel mutant D352E; type: cell-based; conditions: 100 nM peptide, HEK293T, mean ± S.E., n ≥ 3, SEM
T7 construct: expressed in transfected cells; host or cells: HEK293T
T7 sequence (P16389 whole entry D352E): as the sequence (P16389 whole entry V381Y/T383V) above, with D352E, Y381V, V383T counted along it
Procedure: as §6, §5, §3

[11] = 1 μM peptide, room temperature (~25 °C)

## CC[C@H](C)[C@@H]1NC(=O)[C@@H]2CSSC[C@H](NC(=O)[C@H](C)N)C(=O)N[C@@H](CO)C(=O)N[C@@H](CCCCN)C(=O)N3CCC[C@H]3C(=O)N[C@H]3CSSC[C@H](NC(=O)[C@H](CCCNC(=N)N)NC(=O)CNC(=O)[C@H](CC(N)=O)NC1=O)C(=O)N[C@@H](Cc1c[nH]cn1)C(=O)N[C@H](C(=O)N[C@@H](Cc1ccc(O)cc1)C(=O)N[C@@H](Cc1ccc(O)cc1)C(=O)O)CSSC[C@H](NC(=O)[C@H](Cc1ccc(O)cc1)NC(=O)[C@H](CCCCN)NC(=O)[C@H](CCCNC(=N)N)NC3=O)C(=O)N[C@@H]([C@@H](C)CC)C(=O)N[C@@H](CC(=O)O)C(=O)N[C@@H](CCCCN)C(=O)NCC(=O)N[C@@H](C)C(=O)N[C@@H](CCCNC(=N)N)C(=O)N[C@@H](CC(N)=O)C(=O)NCC(=O)N[C@@H](CCCCN)C(=O)N2 [BmK86-P1] (H-ACSKPCRKYCIDKGARNGKCINGRCHCYY-OH; disulfide 2-20, 6-25, 10-27 (inferred); N-terminus and C-terminus assumed)
[1]
  thermal stability of secondary structure: thermally stable
[2]; 100 nM peptide
  inhibition of hKv1.1 channel currents: 0.7 ± 0.1%
[2]; [11]
  inhibition of hKv1.1 channel currents: 4.4 ± 2.6%
[3]
  inhibition of hKv1.2-M3 chimeric channel currents: 1.5 ± 0.6%
[4]
  inhibition of hKv1.2-M1 chimeric channel currents: 1.0 ± 0.2%
[5]
  inhibition of hKv1.2-T383V channel currents: 32.1 ± 2.8%
[6]
  IC50: 597 ± 114 nM
[7]; 100 nM peptide
  inhibition of hKv1.2 channel currents: 74.1 ± 3.2%
[7]; [11]
  inhibition of hKv1.2 channel currents: 88.6 ± 2.2%
[7]; dose-response curve fitted with Hill equation, read-out: IC50, inhibition of the hKv1.2 channel
  IC50: 28.5 ± 6.3 nM
[8]
  inhibition of Kv4.3 channel currents: 4.9 ± 0.3%
[9]
  inhibition of hKv1.6 channel currents: 11.0 ± 1.2%
[10]
  inhibition of hKv1.2-D352E channel currents: 74.8 ± 1.2%
